Measured values from PubChem BioAssay (NCI).
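96-well plates; 48 h exposure; 5 concentrations. Endpoints by linear interpolation between flanking doses. Not reached: highest tested concentration assigned. GI50: concentration for 50% inhibition of growth. The concentration for full growth arrest is given as TGI.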

What was measured:
Test in all cases: NCI-60 cell line screen, 48 h
UACC-257 melanoma = test system: UACC-257 melanoma
PC-3 prostate = test system: PC-3 prostate
SK-OV-3 ovarian = test system: SK-OV-3 ovarian
TK-10 renal = test system: TK-10 renal
UACC-62 melanoma = test system: UACC-62 melanoma
MOLT-4 leukemia = test system: MOLT-4 leukemia
EKVX NSCLC = test system: EKVX NSCLC
HL-60(TB) leukemia = test system: HL-60(TB) leukemia
MALME-3M melanoma = test system: MALME-3M melanoma
NCI-H522 lung = test system: NCI-H522 lung
NCI-H460 lung = test system: NCI-H460 lung
NCI-H226 lung = test system: NCI-H226 lung
HCC-2998 colon = test system: HCC-2998 colon
M14 melanoma = test system: M14 melanoma
HOP-62 NSCLC = test system: HOP-62 NSCLC
HCT-15 colon = test system: HCT-15 colon
KM12 colon = test system: KM12 colon
HCT-116 colon = test system: HCT-116 colon
U251 CNS = test system: U251 CNS
T-47D breast = test system: T-47D breast
LOX IMVI melanoma = test system: LOX IMVI melanoma
A549 NSCLC = test system: A549 NSCLC
SF-295 CNS = test system: SF-295 CNS
NCI/ADR-RES ovarian = test system: NCI/ADR-RES ovarian
SR leukemia = test system: SR leukemia
SK-MEL-2 melanoma = test system: SK-MEL-2 melanoma
SNB-75 CNS = test system: SNB-75 CNS
SW-620 colon = test system: SW-620 colon
UO-31 renal = test system: UO-31 renal
CCRF-CEM leukemia = test system: CCRF-CEM leukemia
SK-MEL-28 melanoma = test system: SK-MEL-28 melanoma
ACHN renal = test system: ACHN renal
DU-145 prostate = test system: DU-145 prostate
MCF7 breast = test system: MCF7 breast
RPMI-8226 leukemia = test system: RPMI-8226 leukemia
SK-MEL-5 melanoma = test system: SK-MEL-5 melanoma
CAKI-1 renal = test system: CAKI-1 renal
RXF 393 renal = test system: RXF 393 renal
BT-549 breast = test system: BT-549 breast
COLO 205 colon = test system: COLO 205 colon
K-562 leukemia = test system: K-562 leukemia
OVCAR-4 ovarian = test system: OVCAR-4 ovarian
HOP-92 NSCLC = test system: HOP-92 NSCLC
OVCAR-5 ovarian = test system: OVCAR-5 ovarian
MDA-MB-231 breast = test system: MDA-MB-231 breast
IGROV1 ovarian = test system: IGROV1 ovarian
OVCAR-8 ovarian = test system: OVCAR-8 ovarian
HS 578T breast = test system: HS 578T breast
SN12C renal = test system: SN12C renal
SNB-19 CNS = test system: SNB-19 CNS
NCI-H23 lung = test system: NCI-H23 lung
SF-268 CNS = test system: SF-268 CNS
786-0 renal = test system: 786-0 renal
HT29 colon = test system: HT29 colon
MDA-MB-435 = test system: MDA-MB-435
SF-539 CNS = test system: SF-539 CNS
OVCAR-3 ovarian = test system: OVCAR-3 ovarian
A498 renal = test system: A498 renal

CCc1cc2ncc(CN3CCN(c4ccc(C(=O)NC)nc4)CC3)cc2[nH]c1=O
GI50 (UACC-257 melanoma): 55.1 µM | TGI (UACC-257 melanoma): > 100 µM | GI50 (PC-3 prostate): 51.7 µM | TGI (PC-3 prostate): > 100 µM | GI50 (SK-OV-3 ovarian): > 100 µM | TGI (SK-OV-3 ovarian): > 100 µM | GI50 (TK-10 renal): 43.1 µM | TGI (TK-10 renal): > 100 µM | GI50 (UACC-62 melanoma): 39.2 µM | TGI (UACC-62 melanoma): > 100 µM | GI50 (MOLT-4 leukemia): 46 µM | TGI (MOLT-4 leukemia): > 100 µM | GI50 (EKVX NSCLC): 84.9 µM | TGI (EKVX NSCLC): > 100 µM | GI50 (HL-60(TB) leukemia): 32.1 µM | TGI (HL-60(TB) leukemia): > 100 µM | GI50 (MALME-3M melanoma): > 100 µM | TGI (MALME-3M melanoma): > 100 µM | GI50 (NCI-H522 lung): 27.1 µM | TGI (NCI-H522 lung): > 100 µM | GI50 (NCI-H460 lung): 33.5 µM | TGI (NCI-H460 lung): > 100 µM | GI50 (NCI-H226 lung): 14.7 µM | TGI (NCI-H226 lung): > 100 µM | GI50 (HCC-2998 colon): 87.9 µM | TGI (HCC-2998 colon): > 100 µM | GI50 (M14 melanoma): 92.4 µM | TGI (M14 melanoma): > 100 µM | GI50 (HOP-62 NSCLC): 55.7 µM | TGI (HOP-62 NSCLC): > 100 µM | GI50 (HCT-15 colon): 65.4 µM | TGI (HCT-15 colon): > 100 µM | GI50 (KM12 colon): > 100 µM | TGI (KM12 colon): > 100 µM | GI50 (HCT-116 colon): 59.6 µM | TGI (HCT-116 colon): > 100 µM | GI50 (U251 CNS): > 100 µM | TGI (U251 CNS): > 100 µM | GI50 (T-47D breast): 28.2 µM | TGI (T-47D breast): > 100 µM | GI50 (LOX IMVI melanoma): 60 µM | TGI (LOX IMVI melanoma): > 100 µM | GI50 (A549 NSCLC): > 100 µM | TGI (A549 NSCLC): > 100 µM | GI50 (SF-295 CNS): 56.7 µM | TGI (SF-295 CNS): > 100 µM | GI50 (NCI/ADR-RES ovarian): > 100 µM | TGI (NCI/ADR-RES ovarian): > 100 µM | GI50 (SR leukemia): 11.5 µM | TGI (SR leukemia): > 100 µM | GI50 (SK-MEL-2 melanoma): > 100 µM | TGI (SK-MEL-2 melanoma): > 100 µM | GI50 (SNB-75 CNS): 18 µM | TGI (SNB-75 CNS): > 100 µM | GI50 (SW-620 colon): > 100 µM | TGI (SW-620 colon): > 100 µM | GI50 (UO-31 renal): 29.5 µM | TGI (UO-31 renal): > 100 µM | GI50 (CCRF-CEM leukemia): 97.1 µM | TGI (CCRF-CEM leukemia): > 100 µM | GI50 (SK-MEL-28 melanoma): > 100 µM | TGI (SK-MEL-28 melanoma): > 100 µM | GI50 (ACHN renal): 78.3 µM | TGI (ACHN renal): > 100 µM | GI50 (DU-145 prostate): > 100 µM | TGI (DU-145 prostate): > 100 µM | GI50 (MCF7 breast): 29.4 µM | TGI (MCF7 breast): > 100 µM | GI50 (RPMI-8226 leukemia): 40.4 µM | TGI (RPMI-8226 leukemia): > 100 µM | GI50 (SK-MEL-5 melanoma): 30.4 µM | TGI (SK-MEL-5 melanoma): > 100 µM | GI50 (CAKI-1 renal): 24.2 µM | TGI (CAKI-1 renal): > 100 µM | GI50 (RXF 393 renal): 17 µM | TGI (RXF 393 renal): > 100 µM | GI50 (BT-549 breast): 25.9 µM | TGI (BT-549 breast): > 100 µM | GI50 (COLO 205 colon): > 100 µM | TGI (COLO 205 colon): > 100 µM | GI50 (K-562 leukemia): 50 µM | TGI (K-562 leukemia): > 100 µM | GI50 (OVCAR-4 ovarian): 41.3 µM | TGI (OVCAR-4 ovarian): > 100 µM | GI50 (HOP-92 NSCLC): 12.3 µM | TGI (HOP-92 NSCLC): > 100 µM | GI50 (OVCAR-5 ovarian): > 100 µM | TGI (OVCAR-5 ovarian): > 100 µM | GI50 (MDA-MB-231 breast): 82 µM | TGI (MDA-MB-231 breast): > 100 µM | GI50 (IGROV1 ovarian): 57.4 µM | TGI (IGROV1 ovarian): > 100 µM | GI50 (OVCAR-8 ovarian): > 100 µM | TGI (OVCAR-8 ovarian): > 100 µM | GI50 (HS 578T breast): 64 µM | TGI (HS 578T breast): > 100 µM | GI50 (SN12C renal): 98.3 µM | TGI (SN12C renal): > 100 µM | GI50 (SNB-19 CNS): 99.7 µM | TGI (SNB-19 CNS): > 100 µM | GI50 (NCI-H23 lung): 53.5 µM | TGI (NCI-H23 lung): > 100 µM | GI50 (SF-268 CNS): > 100 µM | TGI (SF-268 CNS): > 100 µM | GI50 (786-0 renal): 79.6 µM | TGI (786-0 renal): > 100 µM | GI50 (HT29 colon): 48.2 µM | TGI (HT29 colon): > 100 µM | GI50 (MDA-MB-435): 85.8 µM | TGI (MDA-MB-435): > 100 µM | GI50 (SF-539 CNS): 66.9 µM | TGI (SF-539 CNS): > 100 µM | GI50 (OVCAR-3 ovarian): 40.5 µM | TGI (OVCAR-3 ovarian): > 100 µM | GI50 (A498 renal): > 100 µM | TGI (A498 renal): > 100 µM
